This assay concerns α-synuclein on the neuroblastoma cell line (SHSY-5Y Tet-On: SCC291). Description: Expression of α-synuclein on neuroblastoma cell line stimulated with beta-glucan or PMA (glutaraldehyde-fixed cellular ELISA, 3 days). The assay is classed as cell-based. Particulars: BG-AF202 50 μg/mL, PMA 500 ng/mL. The method, then: Neuroblastoma cell line (SHSY-5Y Tet-On: SCC291) (MERCK) was suspended in 10% FCS-DMEM/F12 medium and seeded into 96-well microplates to achieve a cell count of 5×10^4 cells/well. After 24 hours of incubation, the cells were washed with 10% FCS-DMEM/F12 medium and new 10% FCS-DMEM/F12 medium was added.
Then, β-glucan AFO-202 (50 μg/mL) and PMA (500 ng/mL) (Sigma) were added to the medium, and the cells were cultured for 1 to 3 days. After incubation, the wells were washed three times with PBS and fixed in 0.25% glutaraldehyde-PBS for 1 hour at room temperature. After fixation, the wells were washed three times with PBS-0.05% Tween (PBS-T). After washing the wells with PBS-T, 50 μL of 500-fold diluted α-synuclein polyclonal rabbit antibody (proteintech Co. 10842-1-AP) was added to the wells and incubated at room temperature for 1 h. Then, 2% BSA-PBS-T was added and left for 1 h (to block non-specific reactions).
After 1 hour, the wells were washed with PBS-T and 50 μL of biotin-labeled anti-rabbit IgG antibody (Cosmo Bio) diluted 5,000-fold was added to the wells and the reaction was carried out for 40 minutes at room temperature. […]
After that, the absorbance (OD value) was measured with a microplate reader (450 nm) (Tosoh). Data were expressed as […] value (sample OD value−blank OD value). The expression rate was calculated based on the control (None). […]

For `CCCCCCCCCCCCCC(=O)O[C@@H]1[C@@H](C)[C@@]2(O)[C@@H](C=C(CO)C[C@]3(O)C(=O)C(C)=C[C@@H]23)[C@@H]2C(C)(C)[C@]12OC(C)=O` [PMA], the “α-synuclein expression (%) vs. None” value turned out to be 50.1%. This compound also yielded a δOD value (None 0.281) of 0.166.

Source of the values: patent US20240374631A1, “A COMPOSITION FOR IMPROVING GUT MICROBIOTA, BEHAVIOURAL PATTERN, ALPHA-SYNUCLEIN LEVELS, SLEEP PATTERN AND/OR SERUM MELATONIN” (GN Corporation Co Ltd, priority 2021, published 2024).
